From patent US9233977B2, “Leucine-rich repeat kinase enzyme activity” (Merck Sharp & Dohme Corp., priority 2010, dated 2016)

biological target: T1, LRRK2 G2019S mutant kinase (Homo sapiens, UniProt Q5S007, G2019S); experiment: LRRK2 G2019S LanthaScreen TR-FRET kinase assay; assay type: biochemical; conditions: LRRK2 G2019S GST-tagged protein, 75 nM Fluorescein-ERM (LRRKtide), 100 μM ATP, 1 hour at room temperature; read-out: IC50 (potency)
T1 construct: GST; purchased Invitrogen PV4882
Procedure: The final solvent concentration in the assay was 1% DMSO. […] Generation of raw data and workup of data to derive the IC50 (potency) and maximal inhibition at concentrations tested were performed using Merck's Assay Data Analyzer (ADA) software.
The IC50 (potency) was evaluated for the example compounds presented above.

T1 sequence (Q5S007 whole entry G2019S): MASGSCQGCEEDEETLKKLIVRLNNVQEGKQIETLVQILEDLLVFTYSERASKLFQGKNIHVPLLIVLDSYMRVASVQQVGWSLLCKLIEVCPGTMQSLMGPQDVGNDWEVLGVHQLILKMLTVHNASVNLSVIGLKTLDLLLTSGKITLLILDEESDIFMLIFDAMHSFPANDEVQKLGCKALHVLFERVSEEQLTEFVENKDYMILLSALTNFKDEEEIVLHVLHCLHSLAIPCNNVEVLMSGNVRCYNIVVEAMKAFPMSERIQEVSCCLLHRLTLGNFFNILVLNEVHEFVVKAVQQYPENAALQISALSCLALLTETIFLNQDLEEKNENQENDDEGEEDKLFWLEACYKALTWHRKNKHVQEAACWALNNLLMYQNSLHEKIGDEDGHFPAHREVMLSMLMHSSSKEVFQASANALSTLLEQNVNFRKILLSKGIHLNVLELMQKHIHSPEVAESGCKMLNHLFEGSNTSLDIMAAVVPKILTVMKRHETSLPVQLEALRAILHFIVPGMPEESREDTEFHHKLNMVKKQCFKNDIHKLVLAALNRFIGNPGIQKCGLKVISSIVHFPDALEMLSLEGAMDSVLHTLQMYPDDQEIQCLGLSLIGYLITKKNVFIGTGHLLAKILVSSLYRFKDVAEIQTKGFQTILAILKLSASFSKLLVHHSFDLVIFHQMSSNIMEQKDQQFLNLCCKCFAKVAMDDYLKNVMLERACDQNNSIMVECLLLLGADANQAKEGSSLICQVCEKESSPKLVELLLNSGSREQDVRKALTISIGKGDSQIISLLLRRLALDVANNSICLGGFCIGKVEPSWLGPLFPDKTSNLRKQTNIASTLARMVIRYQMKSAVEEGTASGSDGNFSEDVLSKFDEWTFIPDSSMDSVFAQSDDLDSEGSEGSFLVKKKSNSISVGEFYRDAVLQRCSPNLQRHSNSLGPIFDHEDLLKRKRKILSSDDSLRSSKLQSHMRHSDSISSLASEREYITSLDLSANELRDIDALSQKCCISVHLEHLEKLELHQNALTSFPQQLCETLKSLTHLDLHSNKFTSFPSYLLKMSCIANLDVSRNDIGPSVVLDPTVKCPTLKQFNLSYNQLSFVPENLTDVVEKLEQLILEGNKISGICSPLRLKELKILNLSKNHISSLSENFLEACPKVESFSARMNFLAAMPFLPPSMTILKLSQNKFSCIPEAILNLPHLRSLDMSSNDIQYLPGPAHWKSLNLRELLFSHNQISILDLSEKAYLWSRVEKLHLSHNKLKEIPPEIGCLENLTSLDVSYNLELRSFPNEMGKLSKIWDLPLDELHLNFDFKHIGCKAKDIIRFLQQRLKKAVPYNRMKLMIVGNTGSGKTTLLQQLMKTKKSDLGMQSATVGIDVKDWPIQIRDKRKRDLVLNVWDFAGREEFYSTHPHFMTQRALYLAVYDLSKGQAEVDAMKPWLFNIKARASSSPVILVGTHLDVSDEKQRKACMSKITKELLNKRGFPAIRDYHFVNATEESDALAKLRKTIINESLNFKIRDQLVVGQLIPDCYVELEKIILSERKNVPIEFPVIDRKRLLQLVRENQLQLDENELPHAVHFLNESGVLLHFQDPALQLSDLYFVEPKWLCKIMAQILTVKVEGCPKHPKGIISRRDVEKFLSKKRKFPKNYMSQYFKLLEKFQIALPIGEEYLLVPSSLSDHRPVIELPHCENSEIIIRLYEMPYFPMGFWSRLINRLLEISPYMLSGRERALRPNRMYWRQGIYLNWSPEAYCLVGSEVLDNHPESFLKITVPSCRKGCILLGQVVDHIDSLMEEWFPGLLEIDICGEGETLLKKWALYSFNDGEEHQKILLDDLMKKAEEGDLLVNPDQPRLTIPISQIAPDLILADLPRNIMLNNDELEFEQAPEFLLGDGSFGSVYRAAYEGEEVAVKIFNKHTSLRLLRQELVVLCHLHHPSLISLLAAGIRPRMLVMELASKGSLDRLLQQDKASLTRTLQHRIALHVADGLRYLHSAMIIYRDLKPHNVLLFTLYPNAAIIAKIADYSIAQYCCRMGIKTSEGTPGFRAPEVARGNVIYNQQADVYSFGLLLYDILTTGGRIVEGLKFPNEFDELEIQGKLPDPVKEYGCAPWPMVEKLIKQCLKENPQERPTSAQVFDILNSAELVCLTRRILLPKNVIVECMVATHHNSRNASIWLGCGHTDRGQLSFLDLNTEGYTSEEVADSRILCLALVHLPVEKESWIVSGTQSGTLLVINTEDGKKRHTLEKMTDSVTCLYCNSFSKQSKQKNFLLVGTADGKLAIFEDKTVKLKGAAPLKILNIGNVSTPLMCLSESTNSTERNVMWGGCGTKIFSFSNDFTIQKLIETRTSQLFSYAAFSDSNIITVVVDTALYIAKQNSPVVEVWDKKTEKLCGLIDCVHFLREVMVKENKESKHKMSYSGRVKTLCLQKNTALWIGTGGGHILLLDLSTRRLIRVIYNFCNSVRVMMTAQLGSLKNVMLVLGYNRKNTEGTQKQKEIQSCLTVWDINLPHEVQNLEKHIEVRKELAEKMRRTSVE

Q: Which IC50 does the source give for CSc1sc(-c2cc[nH]n2)c2c1C(=O)N(CCCCO)CC2 [Example 60, 5-(4-hydroxybutyl)-3-(methylsulfanyl)-1-(1H-pyrazol-3-yl)-6,7-dihydrothieno[3,4-c]pyridin-4(5)-one] here?
A: Its IC50 is 1700 nM.

Q: Which IC50 does the source give for CCC(C)CSc1sc(-c2cc[nH]n2)c2c1C(=O)NCC2 (stereo not shown) [Example 44, 3-[(2-methyl)butylsulfanyl]-1-(1H-pyrazol-3-yl)-6,7-dihydrothieno[3,4-c]pyridin-4(5)-one] here?
A: The IC50 was 130 nM.

Q: How did the IC50 turn out when CC1Cc2c(-c3cc[nH]n3)sc(SC3CCCC3)c2C(=O)N1 (stereo not shown) [Example 31, 6-methyl-3-(cyclopentylsulfanyl)-1-(1H-pyrazol-3-yl)-6,7-dihydrothieno[3,4-c]pyridin-4(5)one] was run?
A: The IC50 was 35 nM.

Q: How did the IC50 turn out when CSc1sc(-c2cc[nH]n2)c2c1C(=O)NC(C)C2 (stereo not shown) [Example 3, 6-methyl-3-(methylsulfanyl)-1-(1H-pyrazol-3-yl)-6,7-dihydrothieno[3,4-c]pyridin-4(5)-one] was run?
A: The IC50 was 260 nM.

Q: With CNc1sc(-c2cc[nH]n2)c2c1C(=O)N[C@@H](C)C2 [Example 99, (6S)-3-(methylamino)-6-methyl-1-(1H-pyrazol-3-yl)-6,7-dihydrothieno[3,4-c]pyridin-4(5H)-one] as the compound, how does the IC50 read?
A: Its IC50 is 1200 nM.

Q: How did the IC50 turn out when O=C1NC(C(F)(F)F)Cc2c(-c3cc[nH]n3)sc(SC3CCCC3)c21 (stereo not shown) [Example 35, 6-trifluoromethyl-3-(cyclopentylsulfanyl)-1-(1H-pyrazol-3-yl)-6,7-dihydrothieno[3,4-c]pyridin-4(5)-one] was run?
A: The IC50 was 160 nM.

Q: How did the IC50 turn out when CC1CNC(=O)c2c(SC3CCCC3)sc(-c3cc[nH]n3)c21 (stereo not shown) [Example 36, 7-methyl-3-(cyclopentylsulfanyl)-1-(1H-pyrazol-3-yl)-6,7-dihydrothieno[3,4-c]pyridin-4(5)-one] was run?
A: The IC50 was 52 nM.

Q: CSc1sc(-c2cc[nH]n2)c2c1C(=O)N(CC1CCNC1)CC2 (stereo not shown) [Example 62, 3-(methylsulfanyl)-1-(1H-pyrazol-3-yl)-5-(pyrrolidin-3-ylmethyl)-6,7-dihydrothieno[3,4-c]pyridin-4(5H)-one] was tested. Which IC50 did it give?
A: The IC50 was 4300 nM.

Q: With CSc1sc(-c2cc[nH]n2)c2c1C(=O)N[C@H](c1cc(F)cc(F)c1)C2 [Example 16, (6S)-3-(methylsulfanyl)-6-(3,5-difluorophenyl)-1-(1H-pyrazol-3-yl)-6,7-dihydrothieno[3,4-c]pyridin-4(5)-one] as the compound, how does the IC50 read?
A: Its IC50 is 240 nM.

Q: With C[C@H]1Cc2c(-c3cc[nH]n3)sc(SCC(=O)O)c2C(=O)N1 [Example 51, (6S)-6-methyl-1-{[4-oxo-1-(1H-pyrazol-3-yl)-4,5,6,7-tetrahydrothieno[3,4-c]pyridin-3-yl]sulfanyl}acetic acid] as the compound, how does the IC50 read?
A: The IC50 was 2200 nM.

Q: For O=C1NC(Cc2ccccc2)Cc2c(-c3cc[nH]n3)sc(NC3CCCC3)c21 (stereo not shown) [Example 92, 3-(cyclopentylamino)-6-benzyl-1-(1H-pyrazol-3-yl)-6,7-dihydrothieno[3,4-c]pyridin-4(5H)-one], which IC50 is on record?
A: Its IC50 is 290 nM.

Q: CSc1sc(-c2cc[nH]n2)c2c1C(=O)N(c1cccc(F)c1)CC2 [Example 82, 5-(3-fluorophenyl)-3-(methylsulfanyl)-1-(1H-pyrazol-3-yl)-6,7-dihydrothieno[3,4-c]pyridin-4(5)-one] was tested. Which IC50 did it give?
A: Its IC50 is 4000 nM.

Q: How did the IC50 turn out when O=C1NCCc2c(-c3cc[nH]n3)sc(SCC3CC3)c21 [Example 26, 3-[(cyclopropylmethyl)sulfanyl]-1-(1H-pyrazol-3-yl)-6,7-dihydrothieno[3,4-c]pyridin-4(5)-one] was run?
A: The IC50 was 300 nM.

Q: Which IC50 does the source give for CSc1sc(-c2cc[nH]n2)c2c1C(=O)N[C@H](c1ccc(F)cc1)C2 [Example 18, (6S)-3-(methylsulfanyl)-6-(4-fluorophenyl)-1-(1H-pyrazol-3-yl)-6,7-dihydrothieno[3,4-c]pyridin-4(5)-one] here?
A: Its IC50 is 85 nM.

Q: For CSc1sc(-c2cc[nH]n2)c2c1C(=O)N(c1ccc(C)cc1)CC2 [Example 83], which IC50 is on record?
A: The IC50 was 3300 nM.

Q: For CCCCNCCSc1sc(-c2cc[nH]n2)c2c1C(=O)NCC2 [Example 37, 3-{[2-(butylamino)ethyl]sulfanyl}-1-(1H-pyrazol-3-yl)-6,7-dihydrothieno[3,4-c]pyridin-4(5)one], which IC50 is on record?
A: The IC50 was 5200 nM.
